Results on 8 compounds are retold here after ChEMBL document CHEMBL1201862, “PubChem BioAssay data set” (2004).

SMILES strings stand for the structures. Where “and” joins values, the source holds several entries; their conditions need not be identical. Equal entries are not always repeated.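 Interpolation was linear, between the two tested concentrations surrounding the appropriate level; five concentrations were tested over 48 hours in 96-well plates. The concentration for 50% growth inhibition is given as GI50.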 Calls of active or inactive are those of the source. Cut-off read from the data, not from the text of the source: active = GI50 up to about 1.1 µM and inactive = higher.

Among the test systems are HT-29; OVCAR-4; RPMI-8226; CCRF-CEM; Malme-3M; M14; SNB-75; EKVX; HCT-15; IGROV-1; ACHN; COLO 205; MOLT-4; NCI-H23; UACC-257; CAKI-1; HCT-116.
Holding throughout (test): inhibition of tumour cell growth, NCI panel, 48 h

In the case of `NCCCNCCSSC/C=C\CSSCCNCCCN`, the GI50 is 14.2 µM (inactive) and 15.3 µM (inactive) in the test on HT-29; 51.8 µM (inactive) and 58.2 µM (inactive) in the test on OVCAR-4; 26.9 µM (inactive) and 28.6 µM (inactive) in the test with RPMI-8226; 3.75 µM (inactive) and 4.3 µM (inactive) in the test with CCRF-CEM; 78 µM (inactive) in the test on Malme-3M; 34 µM (inactive) and 49 µM (inactive) in the test on M14. Also, the GI50 with SNB-75 was 39.5 µM (inactive) and 37.3 µM (inactive); in the test on EKVX, > 100 µM (inactive); with HCT-15, > 100 µM and 63.7 µM; in the test on IGROV-1, > 100 µM (inactive); with ACHN, > 100 µM (inactive); with COLO 205, 29.5 µM (inactive) and 45.6 µM (inactive). In addition, the GI50 is 20.4 µM (inactive) and 12.3 µM (inactive) in the test with MOLT-4; > 100 µM (inactive) with NCI-H23; 30.9 µM (inactive) and 17.1 µM (inactive) with UACC-257; 36.1 µM (inactive) and 38.5 µM (inactive) with CAKI-1.
As for `COC(=O)C1C(=O)N(CCc2c[nH]c3ccccc23)C[C@@H]2CCC(=O)C[C@H]12` (some centres not stated), the GI50 with HT-29, in the test with OVCAR-4, in the test with RPMI-8226, in the test with CCRF-CEM, with Malme-3M and with M14 was > 100 µM (inactive) each time. Further, the GI50 in the test with SNB-75 is > 100 µM (inactive); in the test with EKVX, > 100 µM (inactive); in the test on HCT-15 it was > 100 µM; in the test on IGROV-1, > 100 µM (inactive); with HCT-116, > 100 µM (inactive); in the test with COLO 205, > 100 µM (inactive). Also, the GI50 in the test on MOLT-4, with NCI-H23, with UACC-257 and in the test with CAKI-1 was > 100 µM (inactive) in each case.
For `O=C(CN(c1ccccc1)c1ccccc1)N1c2ccccc2C2C=CC=CC21` (configuration not stated), the GI50 was 22.2 µM (inactive) with HT-29; 11.1 µM (inactive) in the test on OVCAR-4; 8.22 µM (inactive) in the test on RPMI-8226; 9.42 µM (inactive) in the test on CCRF-CEM; 21.6 µM (inactive) in the test with Malme-3M; 25.6 µM (inactive) in the test on M14. Also, the GI50 in the test on SNB-75 was 18.1 µM (inactive); in the test with EKVX, 24.3 µM (inactive); with HCT-15 it was 16.7 µM; in the test with IGROV-1, 21.3 µM (inactive); in the test on ACHN it was 24 µM (inactive); in the test on HCT-116, 13.8 µM (inactive). Further, the GI50 is 11 µM (inactive) in the test with COLO 205; 8.05 µM (inactive) in the test on MOLT-4; 23.2 µM (inactive) in the test on NCI-H23; 18.3 µM (inactive) with UACC-257; 18.3 µM (inactive) in the test on CAKI-1.
For the compound `CC1CC[C@]2(C(=O)O)CCC3(COC(=O)/C=C\c4ccc(O)cc4)C(=CCC4[C@@]5(C)CC[C@H](O)C(C)(C)C5CC[C@]43C)[C@@H]2[C@H]1C` (some centres not stated), the GI50 is 19.7 µM (inactive) in the test on HT-29; 39.3 µM (inactive) in the test with OVCAR-4; 22.3 µM (inactive) in the test with RPMI-8226; 20.4 µM (inactive) in the test with CCRF-CEM; 34.8 µM (inactive) with Malme-3M; 17.6 µM (inactive) with M14. The GI50 in the test on SNB-75 is 27.7 µM (inactive); in the test on EKVX, 16.7 µM (inactive); with HCT-15, 21 µM; in the test with IGROV-1, 11.5 µM (inactive); in the test on ACHN, 10.4 µM (inactive); with HCT-116, 17.5 µM (inactive). Further, the GI50 with COLO 205 is 23.3 µM (inactive); in the test with MOLT-4, 26.6 µM (inactive); in the test with NCI-H23, 13.9 µM (inactive); with UACC-257, 31 µM (inactive); in the test with CAKI-1 it was 11.4 µM (inactive).
`CC12CCC[C@@](C)(C(=O)OC3OC(CO)C(O)C(O)C3O)[C@H]1CCC13CC4CC(OC4(CO)[C@H]1O)[C@@H]23` (some centres not stated): the GI50 in the test on HT-29, in the test with OVCAR-4, in the test with RPMI-8226, in the test with CCRF-CEM, in the test on Malme-3M and in the test on M14 was > 100 µM (inactive) in each case. For the same compound, the GI50 with SNB-75 is > 100 µM (inactive); in the test on EKVX, > 100 µM (inactive); in the test with HCT-15, 53.7 µM; in the test on IGROV-1 it was > 100 µM (inactive); with ACHN, > 100 µM (inactive); in the test with HCT-116, > 100 µM (inactive). Besides, the GI50 in the test with MOLT-4, with NCI-H23, in the test on UACC-257 and with CAKI-1 was > 100 µM (inactive) in each case.
Turning to `CC1CC2C3CC(F)C4=CC(=O)C=CC4(C)C3(F)C(O)CC2(C)C1(O)C(=O)CO` (configuration not stated), the GI50 with HT-29 was > 100 µM (inactive); with OVCAR-4, > 100 µM (inactive); with RPMI-8226 it was > 100 µM (inactive); in the test on CCRF-CEM, 0.0112 µM (active); with Malme-3M, > 100 µM (inactive); with M14, > 100 µM (inactive). The GI50 with SNB-75 was > 100 µM (inactive); with EKVX, > 100 µM (inactive); in the test on HCT-15 it was > 100 µM; in the test with IGROV-1 it was > 100 µM (inactive); in the test on ACHN it was > 100 µM (inactive); in the test with HCT-116 it was > 100 µM (inactive). Moreover, the GI50 in the test on COLO 205, with MOLT-4, with NCI-H23, with UACC-257 and in the test on CAKI-1 was > 100 µM (inactive) each time.
For the compound `N#CC(C(=O)CCC(=O)C(C#N)c1ccccc1)c1ccccc1` (configuration not stated), the GI50 with HT-29, in the test with OVCAR-4, with RPMI-8226, in the test on CCRF-CEM, in the test on Malme-3M and in the test with M14 was > 100 µM (inactive) in each case. For the same compound, the GI50 with SNB-75 is > 100 µM (inactive); with EKVX, > 100 µM (inactive); with HCT-15, > 100 µM; with IGROV-1, > 100 µM (inactive); with ACHN, > 100 µM (inactive); in the test with HCT-116 it was > 100 µM (inactive). Also, the GI50 with COLO 205, in the test with MOLT-4, with NCI-H23, in the test on UACC-257 and in the test with CAKI-1 was > 100 µM (inactive) each time.
Consider `CN(C)CCNc1ccc2ncn3c4ccccc4c(=O)c1c23`, for which the GI50 in the test with HT-29 is 1.38 µM (inactive); with OVCAR-4, 1.99 µM (inactive); in the test on RPMI-8226, 2.84 µM (inactive); in the test on CCRF-CEM, 2.25 µM (inactive); in the test on Malme-3M, 2.34 µM (inactive); with M14, 3.11 µM (inactive). Further, the GI50 with SNB-75 is 3.25 µM (inactive); in the test on HCT-15 it was 2.85 µM; in the test with IGROV-1 it was 2.42 µM (inactive); in the test on ACHN, 1.26 µM (inactive); in the test on HCT-116, 0.459 µM (active); in the test on COLO 205, 0.94 µM (active). Also, the GI50 was 0.615 µM (active) in the test with MOLT-4, 3.32 µM (inactive) in the test on NCI-H23, 2.97 µM (inactive) in the test on UACC-257 and 2.26 µM (inactive) in the test with CAKI-1.
